Source: paper PMC3961306, “Comparison of the Cancer Gene Targeting and Biochemical Selectivities of All Targeted Kinase Inhibitors Approved for Clinical Use” (PLoS ONE, 2014)

Tests used:
Experiment in all cases: Kinase profiling in a biochemical assay panel (mobility shift assays and ELISA), %-inhibition at 1 μM; selectivity entropy
[1] = biological target: panel of more than 300 wild-type and mutant kinases (313 kinase panel) (Homo sapiens, UniProt Q96RG2); details: kinase PASK; 1 μM
[2] = biological target: panel of more than 300 wild-type and mutant kinases (313 kinase panel) (Homo sapiens, UniProt Q16654); details: kinase PDHK4; 1 μM
[3] = biological target: panel of more than 300 wild-type and mutant kinases (313 kinase panel) (Homo sapiens, UniProt Q9NYY3)
[4] = biological target: panel of more than 300 wild-type and mutant kinases (313 kinase panel) (Homo sapiens, UniProt P45983); details: kinase JNK1; compound at 1 μM
Sequence of panel of more than 300 wild-type and mutant kinases (313 kinase panel) (Homo sapiens, UniProt P45983) (P45983 whole entry, change not shown): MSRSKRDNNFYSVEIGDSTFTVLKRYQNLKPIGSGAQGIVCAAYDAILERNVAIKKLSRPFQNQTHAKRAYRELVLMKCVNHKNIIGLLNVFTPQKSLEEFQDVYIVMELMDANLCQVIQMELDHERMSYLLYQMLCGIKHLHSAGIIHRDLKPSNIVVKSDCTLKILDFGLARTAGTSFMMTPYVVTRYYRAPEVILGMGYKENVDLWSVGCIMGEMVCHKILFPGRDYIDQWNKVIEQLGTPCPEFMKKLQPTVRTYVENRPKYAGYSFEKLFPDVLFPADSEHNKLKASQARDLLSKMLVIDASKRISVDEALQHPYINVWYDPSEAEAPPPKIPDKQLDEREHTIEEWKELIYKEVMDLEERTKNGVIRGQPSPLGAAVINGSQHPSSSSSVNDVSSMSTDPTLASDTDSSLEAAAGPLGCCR

[5] = biological target: panel of more than 300 wild-type and mutant kinases (313 kinase panel) (Homo sapiens, UniProt P22455); details: kinase FGFR4; compound at 1 μM
[6] = biological target: panel of more than 300 wild-type and mutant kinases (313 kinase panel) (Homo sapiens, UniProt Q9Y3S1); details: kinase WNK2; compound at 1 μM
[7] = biological target: panel of more than 300 wild-type and mutant kinases (313 kinase panel) (Homo sapiens, UniProt Q14680)
[8] = biological target: panel of more than 300 wild-type and mutant kinases (313 kinase panel) (Homo sapiens, UniProt Q9Y2H1); details: kinase NDR2; 1 μM
Sequence of panel of more than 300 wild-type and mutant kinases (313 kinase panel) (Homo sapiens, UniProt Q9Y2H1) (Q9Y2H1 whole entry, change not shown): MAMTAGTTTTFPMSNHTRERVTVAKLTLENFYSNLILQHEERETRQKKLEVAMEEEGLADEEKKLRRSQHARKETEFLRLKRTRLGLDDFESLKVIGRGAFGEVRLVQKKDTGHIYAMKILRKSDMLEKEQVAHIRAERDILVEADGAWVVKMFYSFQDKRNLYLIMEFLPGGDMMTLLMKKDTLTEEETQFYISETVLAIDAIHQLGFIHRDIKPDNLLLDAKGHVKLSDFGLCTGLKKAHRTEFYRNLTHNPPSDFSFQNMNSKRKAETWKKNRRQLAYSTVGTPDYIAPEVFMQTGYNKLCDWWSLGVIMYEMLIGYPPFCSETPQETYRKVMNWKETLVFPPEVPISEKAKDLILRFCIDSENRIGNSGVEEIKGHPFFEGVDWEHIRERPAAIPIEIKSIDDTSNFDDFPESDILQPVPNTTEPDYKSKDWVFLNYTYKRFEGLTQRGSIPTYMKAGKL

[9] = biological target: panel of more than 300 wild-type and mutant kinases (313 kinase panel) (Homo sapiens, UniProt Q13554)
Sequence of panel of more than 300 wild-type and mutant kinases (313 kinase panel) (Homo sapiens, UniProt Q13554) (Q13554 whole entry, change not shown): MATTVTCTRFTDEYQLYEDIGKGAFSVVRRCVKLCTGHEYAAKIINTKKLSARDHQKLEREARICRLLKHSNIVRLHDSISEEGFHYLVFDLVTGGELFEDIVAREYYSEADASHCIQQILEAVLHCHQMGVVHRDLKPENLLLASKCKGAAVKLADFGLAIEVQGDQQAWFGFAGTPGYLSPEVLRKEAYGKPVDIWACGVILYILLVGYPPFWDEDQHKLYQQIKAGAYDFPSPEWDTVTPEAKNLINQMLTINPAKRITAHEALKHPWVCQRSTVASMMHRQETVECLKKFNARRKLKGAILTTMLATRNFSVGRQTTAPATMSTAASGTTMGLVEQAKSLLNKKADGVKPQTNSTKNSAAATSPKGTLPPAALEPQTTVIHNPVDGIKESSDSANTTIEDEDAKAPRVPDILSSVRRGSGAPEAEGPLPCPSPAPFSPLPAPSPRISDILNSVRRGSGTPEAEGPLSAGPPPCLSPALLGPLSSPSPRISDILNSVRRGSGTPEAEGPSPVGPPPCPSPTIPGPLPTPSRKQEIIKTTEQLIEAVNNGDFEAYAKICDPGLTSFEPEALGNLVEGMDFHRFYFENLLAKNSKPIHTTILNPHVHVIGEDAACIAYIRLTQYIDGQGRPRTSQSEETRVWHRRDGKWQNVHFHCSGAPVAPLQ

[10] = biological target: panel of more than 300 wild-type and mutant kinases (313 kinase panel) (Homo sapiens, UniProt P11802)
Sequence of panel of more than 300 wild-type and mutant kinases (313 kinase panel) (Homo sapiens, UniProt P11802) (P11802 whole entry, change not shown): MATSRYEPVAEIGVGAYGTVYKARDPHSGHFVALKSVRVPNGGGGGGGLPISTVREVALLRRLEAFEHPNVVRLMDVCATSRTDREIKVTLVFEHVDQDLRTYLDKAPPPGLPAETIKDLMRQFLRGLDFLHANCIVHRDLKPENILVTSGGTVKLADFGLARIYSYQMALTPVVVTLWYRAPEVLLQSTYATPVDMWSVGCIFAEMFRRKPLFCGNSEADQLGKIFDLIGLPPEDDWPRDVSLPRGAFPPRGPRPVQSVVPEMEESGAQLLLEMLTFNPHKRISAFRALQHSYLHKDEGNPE

[11] = biological target: panel of more than 300 wild-type and mutant kinases (313 kinase panel) (Homo sapiens, UniProt Q13164)
[12] = biological target: panel of more than 300 wild-type and mutant kinases (313 kinase panel) (Homo sapiens, UniProt Q13131)
Sequence of panel of more than 300 wild-type and mutant kinases (313 kinase panel) (Homo sapiens, UniProt Q13131) (Q13131 whole entry, change not shown): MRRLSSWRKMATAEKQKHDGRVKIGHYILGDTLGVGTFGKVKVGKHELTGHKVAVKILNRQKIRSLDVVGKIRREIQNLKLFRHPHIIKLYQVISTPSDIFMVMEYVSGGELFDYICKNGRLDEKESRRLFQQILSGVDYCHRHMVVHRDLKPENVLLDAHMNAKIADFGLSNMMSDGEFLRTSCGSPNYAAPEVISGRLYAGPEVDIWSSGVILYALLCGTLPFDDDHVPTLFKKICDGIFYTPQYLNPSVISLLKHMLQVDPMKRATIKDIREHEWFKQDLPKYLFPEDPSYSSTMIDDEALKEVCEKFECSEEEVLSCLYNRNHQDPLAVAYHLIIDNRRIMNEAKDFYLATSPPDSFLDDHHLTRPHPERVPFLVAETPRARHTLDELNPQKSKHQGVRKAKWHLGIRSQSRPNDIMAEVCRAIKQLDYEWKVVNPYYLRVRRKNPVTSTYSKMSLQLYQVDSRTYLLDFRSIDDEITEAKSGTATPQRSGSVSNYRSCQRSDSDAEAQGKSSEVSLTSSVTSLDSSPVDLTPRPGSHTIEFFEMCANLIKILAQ

[13] = biological target: panel of more than 300 wild-type and mutant kinases (313 kinase panel) (Homo sapiens, UniProt P78368); details: kinase CK1γ2; 1 μM compound
[14] = biological target: panel of more than 300 wild-type and mutant kinases (313 kinase panel) (Homo sapiens, UniProt P04626)
Sequence of panel of more than 300 wild-type and mutant kinases (313 kinase panel) (Homo sapiens, UniProt P04626) (P04626 23-1255, change not shown): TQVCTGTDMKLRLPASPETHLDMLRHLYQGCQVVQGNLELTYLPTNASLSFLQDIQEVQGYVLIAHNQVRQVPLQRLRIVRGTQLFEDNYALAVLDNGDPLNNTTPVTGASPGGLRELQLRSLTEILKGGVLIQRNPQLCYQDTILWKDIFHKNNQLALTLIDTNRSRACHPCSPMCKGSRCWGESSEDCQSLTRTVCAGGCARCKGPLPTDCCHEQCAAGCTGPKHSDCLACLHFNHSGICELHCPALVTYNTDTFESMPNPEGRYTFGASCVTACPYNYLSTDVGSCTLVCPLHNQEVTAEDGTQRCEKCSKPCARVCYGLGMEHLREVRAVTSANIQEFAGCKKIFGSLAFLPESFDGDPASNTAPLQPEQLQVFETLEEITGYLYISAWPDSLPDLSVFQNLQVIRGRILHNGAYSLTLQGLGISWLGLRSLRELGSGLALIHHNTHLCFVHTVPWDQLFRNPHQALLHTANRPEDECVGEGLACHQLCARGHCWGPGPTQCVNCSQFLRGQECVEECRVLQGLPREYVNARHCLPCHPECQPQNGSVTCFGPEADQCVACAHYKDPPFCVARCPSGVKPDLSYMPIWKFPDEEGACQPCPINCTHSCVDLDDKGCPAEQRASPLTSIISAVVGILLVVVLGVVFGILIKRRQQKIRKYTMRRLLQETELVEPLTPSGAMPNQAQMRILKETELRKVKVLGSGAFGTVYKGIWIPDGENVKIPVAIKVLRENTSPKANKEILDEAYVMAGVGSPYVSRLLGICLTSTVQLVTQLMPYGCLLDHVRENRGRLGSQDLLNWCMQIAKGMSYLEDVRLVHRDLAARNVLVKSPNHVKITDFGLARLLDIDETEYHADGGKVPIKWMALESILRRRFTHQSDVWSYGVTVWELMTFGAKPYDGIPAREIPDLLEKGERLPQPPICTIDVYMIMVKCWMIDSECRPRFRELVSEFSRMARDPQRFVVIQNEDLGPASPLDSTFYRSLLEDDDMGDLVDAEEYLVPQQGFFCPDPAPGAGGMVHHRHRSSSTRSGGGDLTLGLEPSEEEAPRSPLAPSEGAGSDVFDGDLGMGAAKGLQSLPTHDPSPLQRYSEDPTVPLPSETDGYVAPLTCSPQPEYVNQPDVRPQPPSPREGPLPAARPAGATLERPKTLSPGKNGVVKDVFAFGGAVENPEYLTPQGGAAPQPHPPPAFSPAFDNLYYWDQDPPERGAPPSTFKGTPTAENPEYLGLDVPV

[15] = biological target: panel of more than 300 wild-type and mutant kinases (313 kinase panel) (Homo sapiens, UniProt P04629)
[16] = kinase CDK4/CycD3, 1 μM compound
[17] = kinase AMPKα1/β1/γ1, 1 μM compound

Sequence of panel of more than 300 wild-type and mutant kinases (313 kinase panel) (Homo sapiens, UniProt Q96RG2) (Q96RG2 whole entry, change not shown): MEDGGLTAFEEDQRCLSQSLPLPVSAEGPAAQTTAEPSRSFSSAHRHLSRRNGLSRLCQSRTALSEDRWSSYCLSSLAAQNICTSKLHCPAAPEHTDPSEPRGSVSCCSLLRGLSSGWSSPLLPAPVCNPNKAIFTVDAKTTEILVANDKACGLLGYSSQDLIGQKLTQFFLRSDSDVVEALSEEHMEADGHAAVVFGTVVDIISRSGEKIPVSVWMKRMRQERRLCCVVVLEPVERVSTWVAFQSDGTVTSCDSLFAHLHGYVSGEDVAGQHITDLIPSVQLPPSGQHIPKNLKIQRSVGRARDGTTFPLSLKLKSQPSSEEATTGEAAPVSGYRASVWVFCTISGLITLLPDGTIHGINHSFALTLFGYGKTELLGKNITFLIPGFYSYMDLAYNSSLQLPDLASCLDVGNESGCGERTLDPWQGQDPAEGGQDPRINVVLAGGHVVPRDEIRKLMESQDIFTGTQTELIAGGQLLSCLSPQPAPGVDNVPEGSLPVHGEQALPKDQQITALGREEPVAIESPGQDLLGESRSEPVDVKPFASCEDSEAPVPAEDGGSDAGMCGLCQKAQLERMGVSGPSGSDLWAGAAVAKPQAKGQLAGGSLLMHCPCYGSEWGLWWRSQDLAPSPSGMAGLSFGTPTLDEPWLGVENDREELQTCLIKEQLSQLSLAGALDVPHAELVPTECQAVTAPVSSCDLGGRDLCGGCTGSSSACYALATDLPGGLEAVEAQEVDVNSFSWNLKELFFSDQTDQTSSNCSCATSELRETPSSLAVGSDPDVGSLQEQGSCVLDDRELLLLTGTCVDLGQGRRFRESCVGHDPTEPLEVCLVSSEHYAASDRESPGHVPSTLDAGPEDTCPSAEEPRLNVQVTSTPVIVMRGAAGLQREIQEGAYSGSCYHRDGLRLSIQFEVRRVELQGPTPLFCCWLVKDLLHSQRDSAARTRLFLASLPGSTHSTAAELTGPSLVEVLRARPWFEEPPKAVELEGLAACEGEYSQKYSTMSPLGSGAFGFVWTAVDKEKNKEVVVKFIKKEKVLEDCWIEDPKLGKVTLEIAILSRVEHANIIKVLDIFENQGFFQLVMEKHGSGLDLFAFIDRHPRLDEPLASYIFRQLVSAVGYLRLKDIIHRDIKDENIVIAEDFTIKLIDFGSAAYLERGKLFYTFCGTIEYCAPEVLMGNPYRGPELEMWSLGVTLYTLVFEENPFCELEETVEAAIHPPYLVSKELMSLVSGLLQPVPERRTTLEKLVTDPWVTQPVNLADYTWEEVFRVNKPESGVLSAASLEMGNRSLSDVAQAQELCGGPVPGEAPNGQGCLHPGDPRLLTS

| SMILES | %-inhibition of PASK [1] | %-inhibition of PDHK4 [2] | %-inhibition of PLK2 ([3]; kinase PLK2, 1 μM) | %-inhibition of JNK1 [4] | %-inhibition of FGFR4 [5] | %-inhibition of WNK2 [6] | %-inhibition of MELK ([7]; kinase MELK, compound at 1 μM) | %-inhibition of NDR2 [8] | %-inhibition, CaMK2β ([9]; kinase CaMK2β, 1 μM compound) | %-inhibition, CDK4/CycD3 [10, 16] | %-inhibition of Erk5 ([11]; kinase Erk5, compound at 1 μM) | %-inhibition, AMPKα1/β1/γ1 [12, 17] | %-inhibition, CK1γ2 [13] | %-inhibition of HER2 ([14]; kinase HER2, compound at 1 μM) | %-inhibition of TRKA ([15]; kinase TRKA, 1 μM) | %-inhibition, CaMK2β ([9]; 1 µM) | %-inhibition, CDK4/CycD3 ([10]; 1 µM) | %-inhibition of HER2 ([14]; 1 µM) | other results |
| --- | --- | --- | --- | --- | --- | --- | --- | --- | --- | --- | --- | --- | --- | --- | --- | --- | --- | --- | --- |
| CO[C@H]1C[C@@H]2CC[C@@H](C)[C@@](O)(O2)C(=O)C(=O)N2CCCC[C@H]2C(=O)O[C@H]([C@H](C)C[C@@H]2CC[C@@H](OCCO)[C@H](OC)C2)CC(=O)[C@H](C)/C=C(\C)[C@@H](O)[C@@H](OC)C(=O)[C@H](C)C[C@H](C)/C=C/C=C/C=C/1C [everolimus] | -9% | 2% | 1.38% | -5% | -7.59% | -8% | -3.33% | -8% | -10% | -9% | -2.5% | -6% | -2.3% | -2.5% | -3.53% |  |  |  |  |
| CS(=O)(=O)CCNCc1ccc(-c2ccc3ncnc(Nc4ccc(OCc5cccc(F)c5)c(Cl)c4)c3c2)o1 [lapatinib] | -5% | -4.31% | -4% | -6% | 0.821% | -5% | -3.71% | -6% |  |  |  | -5% | -1.22% |  | 5.64% | -5% | 1.35% | 85% | %-inhibition of Erk5 ([11]; 1 µM): -0.8% |
| Cc1cn(-c2cc(NC(=O)c3ccc(C)c(Nc4nccc(-c5cccnc5)n4)c3)cc(C(F)(F)F)c2)cn1 [nilotinib] | -3% | -4.31% |  | 36% | -7.46% | -8% |  | -14% |  |  | -3.64% |  | 5.57% |  |  | -21% | -4% | 4.25% | %-inhibition of PLK2 ([3]; 1 µM): 6%; %-inhibition of MELK ([7]; 1 µM): 23%; %-inhibition, AMPKα1/β1/γ1 ([12]; 1 µM): -12%; %-inhibition of TRKA ([15]; 1 µM): 41% |
| CNC(=O)c1cc(Oc2ccc(NC(=O)Nc3ccc(Cl)c(C(F)(F)F)c3)c(F)c2)ccn1 [regorafenib] | 0.282% | -1.61% | -3.23% | -1.47% | 33% | -4.43% | -4.52% | -8.54% | -9% | 6.52% | 16% | -0.723% | -3% | 6.43% | 90% |  |  |  |  |
